# System: Hela cell line
# Assay: Cytotoxicity MTS assay, Hela cell line
# Type: cell-based
# Settings: for OD490 value, Mean / OD490 value, Well 1 / OD490 value, Well 2 / OD490 value, Well 3: Hela cell line, MTS; for IC50: MTS assay, 24 h exposure
# Procedure: The positive compounds (IC50 < 100 μM) obtained from the primary Eg5 motor protein ATPase assay were tested for antiproliferative activity in vitro against Caco-2 cell line, Hela cell line, L929 cell line and T24 cell line by performing MTS assay. Cells were introduced into 96-well plates at a density of 1000 cells per well. After 24 h incubation, the cells were exposed with compounds at final concentrations ranging from 0.5 to 100 µM for 24 h. DMSO was used at a final concentration of 0.025% as blank control, monastrol was used as the positive control. Then 20 µL (CellTiter 96® AQueous One Solution Promega, Madison, WI, USA) reagent was added in each well. After 2 h at 37 °C in a 80% humidified, 5% CO2 atmosphere, the absorbance at 490 nm was recorded using a microplate reader (BIO-RAD iMark^TM). The results were obtained in three independent duplicate experiments. The primary data were shown in Supplementary Materials Tables S4–S7. The IC50 values for these compounds were calculated from a non-linear regression graph plotted between the percentage of cell viability and concentration with SPSS17.0 software.
smiles,measurement,setting,value
CCOC(=O)c1[nH]c(C2NC(=O)NC(C)=C2C(=O)Nc2ccccc2OC)c(C(=O)OC)c1C (centres unmarked) [D3],"OD490 value, Mean","0.5μM, first assay",2.7753
same,"OD490 value, Well 1","0.5μM, first assay",2.9485
same,"OD490 value, Well 2","0.5μM, first assay",2.6032
same,"OD490 value, Well 3","0.5μM, first assay",2.7743
same,"OD490 value, Mean","0.5μM, second assay",2.7117
same,"OD490 value, Well 1","0.5μM, second assay",2.7664
same,"OD490 value, Well 2","0.5μM, second assay",2.9230
same,"OD490 value, Well 3","0.5μM, second assay",2.4458
same,"OD490 value, Mean","0.5μM, third assay",2.8303
same,"OD490 value, Well 1","0.5μM, third assay",2.8863
same,"OD490 value, Well 2","0.5μM, third assay",2.8745
same,"OD490 value, Well 3","0.5μM, third assay",2.7301
same,"OD490 value, Mean","1μM, first assay",2.5355
same,"OD490 value, Well 1","1μM, first assay",2.6242
same,"OD490 value, Well 2","1μM, first assay",2.5242
same,"OD490 value, Well 3","1μM, first assay",2.4580
same,"OD490 value, Mean","1μM, second assay",2.6019
same,"OD490 value, Well 1","1μM, second assay",2.7530
same,"OD490 value, Well 2","1μM, second assay",2.3014
same,"OD490 value, Well 3","1μM, second assay",2.7514
same,"OD490 value, Mean","1μM, third assay",2.6769
same,"OD490 value, Well 1","1μM, third assay",2.6365
same,"OD490 value, Well 2","1μM, third assay",2.7412
same,"OD490 value, Well 3","1μM, third assay",2.6531
same,"OD490 value, Mean","10μM, first assay",2.6047
same,"OD490 value, Well 1","10μM, first assay",2.6883
same,"OD490 value, Well 2","10μM, first assay",2.6311
same,"OD490 value, Well 3","10μM, first assay",2.4948
same,"OD490 value, Mean","10μM, second assay",2.6182
same,"OD490 value, Well 1","10μM, second assay",2.7032
same,"OD490 value, Well 2","10μM, second assay",2.6012
same,"OD490 value, Well 3","10μM, second assay",2.5503
same,"OD490 value, Mean","10μM, third assay",2.6419
same,"OD490 value, Well 1","10μM, third assay",2.7745
same,"OD490 value, Well 2","10μM, third assay",2.6563
same,"OD490 value, Well 3","10μM, third assay",2.4949
same,"OD490 value, Mean","25μM, first assay",2.3973
same,"OD490 value, Well 1","25μM, first assay",2.3040
same,"OD490 value, Well 2","25μM, first assay",2.5337
same,"OD490 value, Well 3","25μM, first assay",2.3542
same,"OD490 value, Mean","25μM, second assay",2.3999
same,"OD490 value, Well 1","25μM, second assay",2.5301
same,"OD490 value, Well 2","25μM, second assay",2.4698
same,"OD490 value, Well 3","25μM, second assay",2.1998
same,"OD490 value, Mean","25μM, third assay",2.4241
same,"OD490 value, Well 1","25μM, third assay",2.5355
same,"OD490 value, Well 2","25μM, third assay",2.5124
same,"OD490 value, Well 3","25μM, third assay",2.2245
same,"OD490 value, Mean","50μM, first assay",2.2890
same,"OD490 value, Well 1","50μM, first assay",2.3872
same,"OD490 value, Well 2","50μM, first assay",2.2920
same,"OD490 value, Well 3","50μM, first assay",2.1878
same,"OD490 value, Mean","50μM, second assay",2.2189
same,"OD490 value, Well 1","50μM, second assay",2.3332
same,"OD490 value, Well 2","50μM, second assay",2.3089
same,"OD490 value, Well 3","50μM, second assay",2.0147
same,"OD490 value, Mean","50μM, third assay",2.2950
same,"OD490 value, Well 1","50μM, third assay",2.4301
same,"OD490 value, Well 2","50μM, third assay",2.3354
same,"OD490 value, Well 3","50μM, third assay",2.1196
same,"OD490 value, Mean","100μM, first assay",1.7776
same,"OD490 value, Well 1","100μM, first assay",1.7277
same,"OD490 value, Well 2","100μM, first assay",1.8895
same,"OD490 value, Well 3","100μM, first assay",1.7156
same,"OD490 value, Mean","100μM, second assay",1.7632
same,"OD490 value, Well 1","100μM, second assay",1.6245
same,"OD490 value, Well 2","100μM, second assay",1.8996
same,"OD490 value, Well 3","100μM, second assay",1.7654
same,"OD490 value, Mean","100μM, third assay",1.7923
same,"OD490 value, Well 1","100μM, third assay",1.6654
same,"OD490 value, Well 2","100μM, third assay",1.8247
same,"OD490 value, Well 3","100μM, third assay",1.8869
same,IC50,,115 µM
CCOC(=O)c1c(C2NC(=O)NC(C)=C2C(=O)Nc2ccccc2)[nH]c(C(=O)OC)c1C (centres unmarked) [D10],"OD490 value, Mean","0.5μM, first assay",2.4433
same,"OD490 value, Well 1","0.5μM, first assay",2.2781
same,"OD490 value, Well 2","0.5μM, first assay",2.4004
same,"OD490 value, Well 3","0.5μM, first assay",2.6514
same,"OD490 value, Mean","0.5μM, second assay",2.6180
same,"OD490 value, Well 1","0.5μM, second assay",2.6587
same,"OD490 value, Well 2","0.5μM, second assay",2.4789
same,"OD490 value, Well 3","0.5μM, second assay",2.7165
same,"OD490 value, Mean","0.5μM, third assay",2.7318
same,"OD490 value, Well 1","0.5μM, third assay",2.6365
same,"OD490 value, Well 2","0.5μM, third assay",2.6647
same,"OD490 value, Well 3","0.5μM, third assay",2.8942
same,"OD490 value, Mean","1μM, first assay",2.5456
same,"OD490 value, Well 1","1μM, first assay",2.4058
same,"OD490 value, Well 2","1μM, first assay",2.5965
same,"OD490 value, Well 3","1μM, first assay",2.6345
same,"OD490 value, Mean","1μM, second assay",2.6802
same,"OD490 value, Well 1","1μM, second assay",2.6241
same,"OD490 value, Well 2","1μM, second assay",2.8523
same,"OD490 value, Well 3","1μM, second assay",2.5641
same,"OD490 value, Mean","1μM, third assay",2.6076
same,"OD490 value, Well 1","1μM, third assay",2.6360
same,"OD490 value, Well 2","1μM, third assay",2.5412
same,"OD490 value, Well 3","1μM, third assay",2.6456
same,"OD490 value, Mean","10μM, first assay",2.4164
same,"OD490 value, Well 1","10μM, first assay",2.2701
same,"OD490 value, Well 2","10μM, first assay",2.4384
same,"OD490 value, Well 3","10μM, first assay",2.5408
same,"OD490 value, Mean","10μM, second assay",2.3656
same,"OD490 value, Well 1","10μM, second assay",2.3071
same,"OD490 value, Well 2","10μM, second assay",2.3385
same,"OD490 value, Well 3","10μM, second assay",2.4512
same,"OD490 value, Mean","10μM, third assay",2.4636
same,"OD490 value, Well 1","10μM, third assay",2.3685
same,"OD490 value, Well 2","10μM, third assay",2.4635
same,"OD490 value, Well 3","10μM, third assay",2.5587
same,"OD490 value, Mean","25μM, first assay",2.2246
same,"OD490 value, Well 1","25μM, first assay",1.9325
same,"OD490 value, Well 2","25μM, first assay",2.3409
same,"OD490 value, Well 3","25μM, first assay",2.4004
same,"OD490 value, Mean","25μM, second assay",2.1531
same,"OD490 value, Well 1","25μM, second assay",2.0147
same,"OD490 value, Well 2","25μM, second assay",2.2032
same,"OD490 value, Well 3","25μM, second assay",2.2414
same,"OD490 value, Mean","25μM, third assay",2.1839
same,"OD490 value, Well 1","25μM, third assay",2.1010
same,"OD490 value, Well 2","25μM, third assay",2.1141
same,"OD490 value, Well 3","25μM, third assay",2.3365
same,"OD490 value, Mean","50μM, first assay",1.8479
same,"OD490 value, Well 1","50μM, first assay",1.6416
same,"OD490 value, Well 2","50μM, first assay",1.7737
same,"OD490 value, Well 3","50μM, first assay",2.1285
same,"OD490 value, Mean","50μM, second assay",1.7649
same,"OD490 value, Well 1","50μM, second assay",1.7425
same,"OD490 value, Well 2","50μM, second assay",1.7321
same,"OD490 value, Well 3","50μM, second assay",1.8201
same,"OD490 value, Mean","50μM, third assay",1.8099
same,"OD490 value, Well 1","50μM, third assay",1.7845
same,"OD490 value, Well 2","50μM, third assay",1.8032
same,"OD490 value, Well 3","50μM, third assay",1.8420
same,"OD490 value, Mean","100μM, first assay",1.6845
same,"OD490 value, Well 1","100μM, first assay",1.6759
same,"OD490 value, Well 2","100μM, first assay",1.7430
same,"OD490 value, Well 3","100μM, first assay",1.6346
same,"OD490 value, Mean","100μM, second assay",1.6082
same,"OD490 value, Well 1","100μM, second assay",1.6324
same,"OD490 value, Well 2","100μM, second assay",1.5024
same,"OD490 value, Well 3","100μM, second assay",1.6898
same,"OD490 value, Mean","100μM, third assay",1.7036
same,"OD490 value, Well 1","100μM, third assay",1.6578
same,"OD490 value, Well 2","100μM, third assay",1.6988
same,"OD490 value, Well 3","100μM, third assay",1.7542
same,IC50,,108 µM
